Results reported in patent publication US20220041578A1, “ISOINDOLINE COMPOUND, AND PREPARATION METHOD, PHARMACEUTICAL COMPOSITION, AND APPLICATION OF ISOINDOLINE COMPOUND” (Shanghai Institute of Meteria Medica, Chinese Academy of …, priority 2018, published 2022).

Test system: MM.1S cells
Assay: Effect of the compound on the proliferation of MM.1S cells (MTS)
Assay type: cell-based
Conditions: Homo sapiens, MM1.S, 168 h, 7 days, read-out: Cell inhibitory activity (IC50)
Experimental: MM.1S cells were cultured with 1640 plus 10% fetal bovine serum and collected. The cell concentration was diluted according to the action time of 7 days, and 180 ul cell suspension was added to each well of the 96-well cell plate to make the cell count to be 20,000. 20 ul of DMSO with a final concentration of 0.2% was added to the control cell wells. The compound was diluted 5-fold with the 10 mM stock solution, and 20 ul was also added to the compound cell wells (the final concentration of DMSO is 0.2%). The cells were placed in a 37° C., 5% CO2 incubator and incubated for 7 days. After preparing the reaction solution according to the MTS kit (Promega, G5430), 20 μL was added to each well, incubated in a 37° C., 5% CO2 incubator for 3-4 h. Read the 490 nm absorbance value with a microtiter plate, and used the 690 nm absorbance value as the background value and OD490-OD690 as the final initial data. The formula for calculating the inhibition rate of the compound is: inhibition rate=(OD DMSO-ODcompound)/(ODDMSO-Oblank)×100%. The compound's proliferation inhibition IC50 was fitted by Graph Pad Prism 5.0. The experiment was repeated three times, and three parallel experiments were used to calculate the average and standard deviation each time.

| IC50 | Compound |
| --- | --- |
| < 150 nM | O=C1CCC(N2Cc3c(NCc4cnc(-c5ccc(OC(F)(F)F)cc5)o4)cccc3C2=O)C(=O)N1 (stereo not shown) [Compound 82] |
| > 20000 nM | C[C@]12CC3CC(n4cc(COc5cccc6c5CN(C5CCC(=O)NC5=O)C6=O)nn4)(C1)C[C@@](C)(C3)C2 (stereo partly drawn) [Compound 89, 3-(4-((1-((1R, 3R, 5S, 7R)-3,5-dimethyladamantin-1-yl)-1H-1,2,3-triazol-4-yl)methoxy)-1-isoindolin-2-yl) piperidin-2,6-dione] |
| < 150 nM | CN(C)c1cccc(Cn2cc(COc3cccc4c3CN(C3CCC(=O)NC3=O)C4=O)nn2)c1 (stereo not shown) [Compound 9] |
| < 150 nM | C[C@@H](c1ccccc1)n1cc(COc2cccc3c2CN(C2CCC(=O)NC2=O)C3=O)nn1 (stereo partly shown) [Compound 51] |
| < 150 nM | Cc1cc(COc2cccc3c2CN(C2CCC(=O)NC2=O)C3=O)nn1-c1c(Cl)cc(OC(F)(F)F)cc1Cl (stereo not shown) [Compound 85, 3-(4-((1-(2,6-dichloro-4-(trifluoromethoxy)phenyl)-5-methyl-1H-pyrazol-3-yl)methoxy)-1-isoindolin-2-yl)piperidine-2,6-dione] |
| 150 to 20000 nM | O=C1CCC(N2Cc3c(OCc4cn([C@H](CO)Cc5ccccc5)nn4)cccc3C2=O)C(=O)N1 (stereo partly shown) [Compound 54] |
| < 150 nM | C[C@H](c1ccccc1)n1cc(COc2cccc3c2CN(C2CCC(=O)NC2=O)C3=O)nn1 (stereo partly shown) [Compound 50] |
| < 150 nM | O=C1CCC(N2Cc3c(OCc4cn(-c5ccc(OC6CC6)cc5)nn4)cccc3C2=O)C(=O)N1 (stereo not shown) [Compound 32] |
| < 150 nM | O=C1CCC(N2Cc3c(OCc4cnc(-c5nc6ccccc6s5)s4)cccc3C2=O)C(=O)N1 (stereo not shown) [Compound 46, 3-(4-(2-(benzo[d]thiazol-2-)thiazol-5-)methoxy)-1-oxoisoindolin-2-) piperidine-2,6-dione] |
| 150 to 20000 nM | O=C1CCC(N2Cc3c(OCC4CN(c5ccc(OC(F)(F)F)cc5)C4)cccc3C2=O)C(=O)N1 (stereo not shown) [Compound 64, 3-(1-oxo-4-((1-(4-trifluoromethoxyphenyl)azetidin-3-)methoxy)isoindolin-2-) piperidine-2,6-dione] |
| 150 to 20000 nM | O=C1CCC(N2Cc3c(OCCC4CN(c5ccnc6ccccc56)C4)cccc3C2=O)C(=O)N1 (stereo not shown) [Compound 69, 3-(1-oxo-4-(2-(1-(quinolin-4-)azetidin-3-)ethoxy)isoindolin-2-) piperidine-2,6-dione] |
| < 150 nM | O=C1CCC(N2Cc3c(OCc4cnc(-c5ncc(C(F)(F)F)s5)s4)cccc3C2=O)C(=O)N1 (stereo not shown) [Compound 47] |
| < 150 nM | O=C1CCC(N2Cc3c(OCc4cn(-c5cccc(O)c5)nn4)cccc3C2=O)C(=O)N1 (stereo not shown) [Compound 16, 3-(4-((1-(3-hydroxyphenyl)-1H-1,2,3-triazol-4-)methoxy)-1-oxoisoindolin-2-) piperidine-2,6-dione] |
| < 150 nM | O=C1CCC(N2Cc3c(OCC4CCC(c5ccc(OC(F)(F)F)cc5)CC4)cccc3C2=O)C(=O)N1 (stereo not shown) [Compound 72, 3-(1-oxo-4-((4-(4-(trifluoromethoxy)phenyl)cyclohexyl)methoxy)isoindolin-2-) piperidine-2,6-dione] |
| 150 to 20000 nM | O=C1CCC(N2Cc3c(OCc4cn(Cc5cccnc5)nn4)cccc3C2=O)C(=O)N1 (stereo not shown) [Compound 3] |
| 150 to 20000 nM | O=C1CCC(N2Cc3c(OCc4cn(CC5CCOCC5)nn4)cccc3C2=O)C(=O)N1 (stereo not shown) [Compound 48, 3-(1-oxo-4-((1-((tetrahydro-2H-pyran-4-)methyl)-1H-1,2,3-triazol-4-)methoxy)isoindolin-2-) piperidine-2,6-dione] |

| IC50 | Compound |
| --- | --- |
| < 150 nM | O=C1CCC(N2Cc3c(OCc4cn([C@@H](CO)Cc5ccccc5)nn4)cccc3C2=O)C(=O)N1 (stereo partly shown) [Compound 53] |
| 150 to 20000 nM | O=C1CCC(N2Cc3c(OC[C@H]4CCN(c5ccnc6ccccc56)C4)cccc3C2=O)C(=O)N1 (stereo partly drawn) [Compound 65, 3-(1-oxo-4-(((S)-1-(quinolin-4-)pyrrolin-3-)methoxy)isoindolin-2-) piperidine-2,6-dione] |
| < 150 nM | O=C1CCC(N2Cc3c(OCc4cn(Cc5cccc(-n6ccnc6)c5)nn4)cccc3C2=O)C(=O)N1 (stereo not shown) [Compound 14, 3-(4-((1-(3-(1H-imidazol-1-)benzyl)-1H-1,2,3-triazol-4-)methoxy)-1-oxoisoindolin-2-) piperidine-2,6-dione] |
| < 150 nM | O=C1CCC(N2Cc3c(OCc4cn(C5C6CC7CC(C6)CC5C7)nn4)cccc3C2=O)C(=O)N1 [Compound 87, 3-(4-((1-((1R, 3R, 5R, 7R)-adamantan-2-yl)-1H-1,2,3-triazol-4-yl)methoxy)-1-isoindolin-2-yl) piperidin-2,6-dione] |
| < 150 nM | COC[C@@H](Cc1ccccc1)n1cc(COc2cccc3c2CN(C2CCC(=O)NC2=O)C3=O)nn1 (stereo partly shown) [Compound 52] |
| < 150 nM | COc1cccc(Cn2cc(COc3cccc4c3CN(C3CCC(=O)NC3=O)C4=O)nn2)c1 (stereo not shown) [Compound 5] |
| 150 to 20000 nM | O=C1CCC(N2C(=O)c3cccc(OCc4cn(-c5ccc(OC(F)(F)F)cc5)nn4)c3C2=O)C(=O)N1 (stereo not shown) [Compound 38, 2-(2,6-dioxopiperidine-3-)-4-((1-(4-trifluoromethoxyphenyl)-1H-1,2,3-triazol-4-)methoxy) isoindolin-1,3-dione] |
| < 150 nM | O=C1CCC(N2Cc3c(OCc4cn(-c5ccc(OC6COC6)cc5)nn4)cccc3C2=O)C(=O)N1 (stereo not shown) [Compound 31, 3-(4-((1-(4-(epoxypropanoxy-3-oxy)phenyl)-1H-1,2,3-triazol-4-)methoxy)-1-oxoisoindolin-2-)piperidine-2,6-dione] |
| > 20000 nM | O=C1CCC(N2Cc3c(OCc4cn(C56CC7CC(CC(O)(C7)C5)C6)nn4)cccc3C2=O)C(=O)N1 [Compound 86, 3-(4-((1-((1R, 3S, 5R, 7S)-3-hydroxyadamantan-1-yl)-1H-1,2,3-triazol-4-yl)methoxy)-1-isoindolin-pyridin-2-yl) piperidin-2,6-dione] |
| < 150 nM | O=C1CCC(N2Cc3c(OCCC4CCN(c5ccnc6ccccc56)CC4)cccc3C2=O)C(=O)N1 (stereo not shown) [Compound 68, 3-(1-oxo-4-(2-(1-(quinolin-4-)piperidin-4-)ethoxy)isoindolin-2-) piperidin-2,6-dione] |
| < 150 nM | O=C1CCC(N2Cc3c(OCc4cn(-c5cccc(N6CCOCC6)c5)nn4)cccc3C2=O)C(=O)N1 (stereo not shown) [Compound 22, 3-(4-((1-(3-morpholinophenyl)-1H-1,2,3-triazol-4-)methoxy)-1-oxoisoindolin-2-) piperidine-2,6-dione] |
| < 150 nM | Cc1c(COc2cccc3c2CN(C2CCC(=O)NC2=O)C3=O)cnn1-c1c(Cl)cc(OC(F)(F)F)cc1Cl (stereo not shown) [Compound 84, 3-(4-((1-(2,6-dichloro-4-(trifluoromethoxy)phenyl)-5-methyl-1H-pyrazol-4-yl)methoxy)-1-isoindolin-2-1) piperidine-2,6-dione] |
| < 150 nM | O=C1CCC(N2Cc3c(OCc4cn(Cc5ccnc6ccccc56)nn4)cccc3C2=O)C(=O)N1 (stereo not shown) [Compound 4] |
| < 150 nM | O=C1CCC(N2Cc3c(OCc4cn(-c5ccc(O)cc5)nn4)cccc3C2=O)C(=O)N1 (stereo not shown) [Compound 21, 3-(4-((1-(4-hydroxyphenyl)-1H-1,2,3-triazol-4-)methoxy)-1-oxoisoindolin-2-) piperidine-2,6-dione] |
| < 150 nM | O=C1CCC(N2Cc3c(OCC4CCN(c5ccnc6ccccc56)CC4)cccc3C2=O)C(=O)N1 (stereo not shown) [Compound 67, 3-(1-oxo-4-((1-(quinolin-4-)piperidin-4-)methoxy)isoindolin-2-) piperidin-2,6-dione] |
